# Reference: patent US12180189B2, “Proteostasis regulators” (Kineta, Inc., priority 2011, dated 2024)
# Target: USP14 (Homo sapiens, UniProt P54578)
# Assay: USP14 inhibition (methodology of B. H. Lee et al. Nature 2010)
# Format: biochemical
# Conditions: average value from three experimental determinations
# Protocol: Known USP14 inhibitor IU1 (1-(1-(4-fluorophenyl)-2,5-dimethyl-1H-pyrrol-3-yl)-2-(pyrrolidin-1-yl)ethanone; B. H. Lee et al. Nature 2010, 467 (9), 179) was used as a comparative reference agent. The IC50 values in the Table below represent the average value from three experimental determinations. In the table below, “A” represents an IC50 of 0 to 5 uM, “B” represents an IC50 of 5 to 10 uM, and “C” represents and IC50 of greater than 10 uM.
# Chain of USP14 (P54578 whole entry): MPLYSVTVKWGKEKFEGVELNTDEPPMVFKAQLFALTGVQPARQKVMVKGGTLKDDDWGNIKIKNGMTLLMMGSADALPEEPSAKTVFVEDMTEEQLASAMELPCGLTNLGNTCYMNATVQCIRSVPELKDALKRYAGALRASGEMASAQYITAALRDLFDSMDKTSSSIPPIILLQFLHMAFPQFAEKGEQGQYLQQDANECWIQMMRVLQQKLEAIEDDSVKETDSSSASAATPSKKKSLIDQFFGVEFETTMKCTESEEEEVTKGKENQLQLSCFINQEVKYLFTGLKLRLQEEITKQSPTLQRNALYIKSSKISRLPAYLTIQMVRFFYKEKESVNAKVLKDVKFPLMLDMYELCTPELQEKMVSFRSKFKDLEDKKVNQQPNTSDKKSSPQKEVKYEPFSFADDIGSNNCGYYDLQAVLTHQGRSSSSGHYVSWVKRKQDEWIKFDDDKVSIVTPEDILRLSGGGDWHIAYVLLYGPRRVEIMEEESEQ
# Chain of USP14 (Q13200 whole entry partner): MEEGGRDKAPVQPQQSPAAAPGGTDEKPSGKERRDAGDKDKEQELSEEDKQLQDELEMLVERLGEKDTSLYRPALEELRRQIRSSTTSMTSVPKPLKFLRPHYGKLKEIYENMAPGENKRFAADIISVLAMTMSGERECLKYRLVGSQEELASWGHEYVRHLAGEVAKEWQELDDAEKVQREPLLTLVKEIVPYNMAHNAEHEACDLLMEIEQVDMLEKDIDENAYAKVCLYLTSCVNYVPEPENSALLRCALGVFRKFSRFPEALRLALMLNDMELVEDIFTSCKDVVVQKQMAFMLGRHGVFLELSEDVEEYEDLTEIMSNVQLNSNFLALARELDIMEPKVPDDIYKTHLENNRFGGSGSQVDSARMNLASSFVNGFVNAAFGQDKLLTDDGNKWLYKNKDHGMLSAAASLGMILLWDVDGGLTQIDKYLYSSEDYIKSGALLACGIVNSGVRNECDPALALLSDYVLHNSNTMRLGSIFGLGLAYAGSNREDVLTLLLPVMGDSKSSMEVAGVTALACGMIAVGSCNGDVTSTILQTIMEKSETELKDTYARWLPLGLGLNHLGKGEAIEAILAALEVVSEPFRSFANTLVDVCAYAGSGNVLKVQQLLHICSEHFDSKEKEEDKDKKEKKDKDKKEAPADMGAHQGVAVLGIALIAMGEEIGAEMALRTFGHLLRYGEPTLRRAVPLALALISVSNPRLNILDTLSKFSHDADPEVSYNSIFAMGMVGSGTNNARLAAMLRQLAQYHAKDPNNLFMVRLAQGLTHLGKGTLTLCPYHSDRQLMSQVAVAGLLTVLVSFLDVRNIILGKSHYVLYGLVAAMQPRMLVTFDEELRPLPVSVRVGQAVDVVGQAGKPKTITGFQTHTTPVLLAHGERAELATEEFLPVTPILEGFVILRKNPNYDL
# Chain of USP14 (P35998 whole entry partner): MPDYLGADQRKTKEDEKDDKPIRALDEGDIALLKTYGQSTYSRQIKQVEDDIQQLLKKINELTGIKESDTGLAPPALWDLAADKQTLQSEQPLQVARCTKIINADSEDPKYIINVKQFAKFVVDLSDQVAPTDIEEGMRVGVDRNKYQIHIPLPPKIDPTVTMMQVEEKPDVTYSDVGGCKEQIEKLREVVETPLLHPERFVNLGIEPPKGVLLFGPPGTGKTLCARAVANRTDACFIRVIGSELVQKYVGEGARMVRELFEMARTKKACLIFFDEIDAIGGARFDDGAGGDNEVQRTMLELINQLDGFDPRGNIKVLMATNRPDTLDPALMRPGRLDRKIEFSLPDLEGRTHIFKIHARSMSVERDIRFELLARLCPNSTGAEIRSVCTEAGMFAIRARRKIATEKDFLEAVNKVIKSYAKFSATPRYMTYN
row,IC50 [µM],SMILES
1,> 10,"Cc1sc(-c2ccc(Cl)cc2)cc1C(=O)CN1CCC(O)CC1 [Compound A29, 1-(5-(4-chlorophenyl)-2-methylthiophen-3-yl)-2-(4-hydroxypiperidin-1-yl)ethanone]"
2,> 10,"Cc1cc(C(=O)C(=O)O)c(C)n1-c1ccc(Cl)cc1 [Compound A5, 2-(1-(4-chlorophenyl)-2,5-dimethyl-1H-pyrrol-3-yl)-2-oxoacetic acid]"
3,> 10,"Cc1cc(C(=O)Cn2ccnc2)c(C)n1-c1ccc(Cl)cc1 [Compound A10, 1-[1-(4-Chloro-phenyl)-2,5-dimethyl-1H-pyrrol-3-yl]-2-imidazol-1-yl-ethanone]"
4,> 10,"Cc1cc(C(=O)CCl)c(C)n1-c1ccc(Cl)cc1 [Compound A8, 2-chloro-1-(1-(4-chlorophenyl)-2,5-dimethyl-1H-pyrrol-3-yl)ethanone]"
5,> 10,"Cc1c(C(=O)CN2CCCC2)nnn1-c1ccc(F)cc1 [Compound A30, 1-(1-(4-fluorophenyl)-5-methyl-1H-1,2,3-triazol-4-yl)-2-(pyrrolidin-1-yl)ethanone]"
6,> 10,"O=C(CN1CCCCC1)N1CCN(c2ccc(F)cc2)CC1 [Compound A32, 1-(4-(4-fluorophenyl)piperazin-1-yl)-2-(piperidin-1-yl)ethanone]"
7,> 10,"Cc1nn(-c2ccc(Cl)cc2)c(C)c1C(=O)CN(C)C1CC1 [Compound A20, 1-[1-(4-Chloro-phenyl)-3,5-dimethyl-1H-pyrazol-4-yl]-2-(Cyclopropyl-methyl-amino)-ethanone]"
8,> 10,"Cc1cc(C(=O)C(=O)N2CCC(F)CC2)c(C)n1-c1ccc(Cl)cc1 [Compound A7, 1-(1-(4-chlorophenyl)-2,5-dimethyl-1H-pyrrol-3-yl)-2-(4-fluoropiperidin-1-yl)ethane-1,2-dione]"
9,< 5,"Cc1nn(-c2ccc(Cl)cc2)c(C)c1C(=O)CN1CCCC1 [Compound A19, 1-[1-(4-Chloro-phenyl)-3,5-dimethyl-1H-pyrazol-4-yl]-2-Pyrrolidine-1-yl-ethanone]"
10,> 10,"CN(CC(=O)c1cnn(-c2ccc(Cl)cc2)c1)C1CC1 [Compound A24, 1-[1-(4-Chloro-phenyl)-1H-pyrazol-4-yl]-2-(cyclopropyl-methyl-amino)-ethanone]"
11,5 to 10,"Cc1nn(-c2ccc(Cl)cc2)c(C)c1C(=O)CN1CCCCC1 [Compound A18, 1-[1-(4-Chloro-phenyl)-3,5-dimethyl-1H-pyrazol-4-yl]-2-piperidin-1-yl-ethanone]"
12,< 5,"Cc1c(C(=O)CN2CCCC2)cnn1-c1ccc(Cl)cc1 [Compound A14, 1-[1-(4-Chloro-phenyl)-5-methyl-1H-pyrazol-4-yl]-2-pyrrolidin-1-yl-ethanone]"
13,> 10,Cc1cc(C#N)c(C)n1-c1ccc(Cl)cc1 [Compound A47]
14,> 10,"Cc1cc(C(=O)C(F)F)c(C)n1-c1ccc(Cl)cc1 [Compound A3, 1-(1-(4-chlorophenyl)-2,5-dimethyl-1H-pyrrol-3-yl)-2,2-difluoroethanone]"
15,> 10,"Cc1nn(-c2ccc(Cl)cc2)c(C)c1C(=O)CC1CCCCC1 [Compound A21, 1-(1-(4-chlorophenyl)-3,5-dimethyl-1H-pyrazol-4-yl)-2-cyclohexylethanone]"
16,> 10,O=C(CN1CCCCC1)c1cc(-c2ccc(Cl)cc2)ns1 [Compound A26]
17,> 10,"Cc1cc(C(=O)Cn2cccc2)c(C)n1-c1ccc(Cl)cc1 [Compound A9, 1-[1-(4-Chloro-phenyl)-2,5-dimethyl-1H-pyrrol-3-yl]-2-pyrrol-1-yl-ethanone]"
18,> 10,"Cc1sc(-c2ccc(Cl)cc2)cc1C(=O)CN1CCC(F)CC1 [Compound A28, 1-(5-(4-chlorophenyl)-2-methylthiophen-3-yl)-2-(4-fluoropiperidin-1-yl)ethanone]"
19,> 10,"O=C(CN1CCCCC1)c1cnn(-c2ccc(Cl)cc2)c1 [Compound A22, 1-[1-(4-Chloro-phenyl)-1H-pyrazol-4-yl]-2-piperidin-1-yl-ethanone]"
20,> 10,CNC(=O)C1CCN(C(C)C(=O)c2cc(C)n(-c3ccc(Cl)cc3)c2C)CC1 (stereo not shown) [Compound A45]
21,> 10,"Cc1oc(-c2ccc(Cl)cc2)nc1C(=O)CN1CCCCC1 [Compound A25, 1-[2-(4-Chloro-phenyl)-5-methyl-oxazol-4-yl]-2-piperidin-1-yl-ethanone]"
22,> 10,"Cc1cc(C(=O)CC2CCCC2)c(C)n1-c1ccc(Cl)cc1 [Compound A1, 1-[1-(4-Chloro-phenyl)-2,5-dimethyl-1H-pyrrol-3-yl]-2-cyclopentyl-ethanone]"
23,> 10,"Cc1cc(C(=O)CC(F)(F)F)c(C)n1-c1ccc(Cl)cc1 [Compound A4, 1-(1-(4-chlorophenyl)-2,5-dimethyl-1H-pyrrol-3-yl)-3,3,3-trifluoropropan-1-one]"
24,> 10,"Cc1cc(C(=O)CC2CCCCC2)c(C)n1-c1ccc(Cl)cc1 [Compound A2, 1-[1-(4-Chloro-phenyl)-2,5-dimethyl-1H-pyrrol-3-yl]-2cyclohexyl-ethanone]"

row,SMILES,IC50 [µM]
1,"O=C(CN1CCCC1)c1cnn(-c2ccc(Cl)cc2)c1 [Compound A23, 1-[1-(4-Chloro-phenyl)-1H-pyrazol-4-yl]-2-pyrrolidin-1-yl-ethanone]",> 10
2,"Cc1cc(C(=O)CN2CCCC2)c(C)n1C [Compound A12, 2-(pyrrolidin-1-yl)-1-(1,2,5-trimethyl-1H-pyrrol-3-yl)ethanone]",> 10
3,"Cc1sc(-c2ccc(Cl)cc2)cc1C(=O)CN1CCCCC1 [Compound A27, 1-(5-(4-chlorophenyl)-2-methylthiophen-3-yl)-2-(piperidin-1-yl)ethanone]",> 10
4,"Cc1cc(C(=O)CN2CCCCC2)c(C)n1C [Compound A11, 2-(piperidin-1-yl)-1-(1,2,5-trimethyl-1H-pyrrol-3-yl)ethanone]",> 10
5,"O=C(CN1CCCC1)N1CCN(c2ccc(Cl)cc2)CC1 [Compound A31, 1-(4-(4-chlorophenyl)piperazin-1-yl)-2-(pyrrolidin-1-yl)ethanone]",> 10
6,Cc1cc(C(=O)C(C)N2CCC(C(N)=O)CC2)c(C)n1-c1ccc(Cl)cc1 (stereo not shown) [Compound A44],> 10
7,COC(=O)C1CCN(C(C)C(=O)c2cc(C)n(-c3ccc(Cl)cc3)c2C)CC1 (stereo not shown) [Compound A46],> 10
